# Laboratory results as given in BindingDB's records for doi:10.3109/14756366.2012.658786 (Yeungnam University, 2013).
# Target: Fatty acid synthase (Gallus gallus, UniProt P12276)
# Test: FAS Inhibitory Assay
# Details: pH 7; 37 °C
# Procedure: To each microtube (final volume: 100 μL), FAS was added (20-30 μg protein) in a buffer containing 100 mM potassium phosphate (pH 7.0), 2.5 mM dithiothreitol and 2.0 mM EDTA with or without test compounds. The mixtures were preincubated at 37°C for 60 min and the reaction was started by the addition of a substrate mixture containing 0.25 mM NADPH, 0.4 nmol of malonyl CoA and 0.02 μCi of [3H] acetyl CoA. Following incubation at 37°C for 10 min, the reaction was terminated with 60% HClO4. Fatty acids were extracted with 1 mL of hexane and incorporation of radioactivity into the fatty acids was assessed by scintillation counting [Na et al., Bioorg. Med. Chem. Lett., 16:4738-4742].
# Chain of Fatty acid synthase (P12276 whole entry): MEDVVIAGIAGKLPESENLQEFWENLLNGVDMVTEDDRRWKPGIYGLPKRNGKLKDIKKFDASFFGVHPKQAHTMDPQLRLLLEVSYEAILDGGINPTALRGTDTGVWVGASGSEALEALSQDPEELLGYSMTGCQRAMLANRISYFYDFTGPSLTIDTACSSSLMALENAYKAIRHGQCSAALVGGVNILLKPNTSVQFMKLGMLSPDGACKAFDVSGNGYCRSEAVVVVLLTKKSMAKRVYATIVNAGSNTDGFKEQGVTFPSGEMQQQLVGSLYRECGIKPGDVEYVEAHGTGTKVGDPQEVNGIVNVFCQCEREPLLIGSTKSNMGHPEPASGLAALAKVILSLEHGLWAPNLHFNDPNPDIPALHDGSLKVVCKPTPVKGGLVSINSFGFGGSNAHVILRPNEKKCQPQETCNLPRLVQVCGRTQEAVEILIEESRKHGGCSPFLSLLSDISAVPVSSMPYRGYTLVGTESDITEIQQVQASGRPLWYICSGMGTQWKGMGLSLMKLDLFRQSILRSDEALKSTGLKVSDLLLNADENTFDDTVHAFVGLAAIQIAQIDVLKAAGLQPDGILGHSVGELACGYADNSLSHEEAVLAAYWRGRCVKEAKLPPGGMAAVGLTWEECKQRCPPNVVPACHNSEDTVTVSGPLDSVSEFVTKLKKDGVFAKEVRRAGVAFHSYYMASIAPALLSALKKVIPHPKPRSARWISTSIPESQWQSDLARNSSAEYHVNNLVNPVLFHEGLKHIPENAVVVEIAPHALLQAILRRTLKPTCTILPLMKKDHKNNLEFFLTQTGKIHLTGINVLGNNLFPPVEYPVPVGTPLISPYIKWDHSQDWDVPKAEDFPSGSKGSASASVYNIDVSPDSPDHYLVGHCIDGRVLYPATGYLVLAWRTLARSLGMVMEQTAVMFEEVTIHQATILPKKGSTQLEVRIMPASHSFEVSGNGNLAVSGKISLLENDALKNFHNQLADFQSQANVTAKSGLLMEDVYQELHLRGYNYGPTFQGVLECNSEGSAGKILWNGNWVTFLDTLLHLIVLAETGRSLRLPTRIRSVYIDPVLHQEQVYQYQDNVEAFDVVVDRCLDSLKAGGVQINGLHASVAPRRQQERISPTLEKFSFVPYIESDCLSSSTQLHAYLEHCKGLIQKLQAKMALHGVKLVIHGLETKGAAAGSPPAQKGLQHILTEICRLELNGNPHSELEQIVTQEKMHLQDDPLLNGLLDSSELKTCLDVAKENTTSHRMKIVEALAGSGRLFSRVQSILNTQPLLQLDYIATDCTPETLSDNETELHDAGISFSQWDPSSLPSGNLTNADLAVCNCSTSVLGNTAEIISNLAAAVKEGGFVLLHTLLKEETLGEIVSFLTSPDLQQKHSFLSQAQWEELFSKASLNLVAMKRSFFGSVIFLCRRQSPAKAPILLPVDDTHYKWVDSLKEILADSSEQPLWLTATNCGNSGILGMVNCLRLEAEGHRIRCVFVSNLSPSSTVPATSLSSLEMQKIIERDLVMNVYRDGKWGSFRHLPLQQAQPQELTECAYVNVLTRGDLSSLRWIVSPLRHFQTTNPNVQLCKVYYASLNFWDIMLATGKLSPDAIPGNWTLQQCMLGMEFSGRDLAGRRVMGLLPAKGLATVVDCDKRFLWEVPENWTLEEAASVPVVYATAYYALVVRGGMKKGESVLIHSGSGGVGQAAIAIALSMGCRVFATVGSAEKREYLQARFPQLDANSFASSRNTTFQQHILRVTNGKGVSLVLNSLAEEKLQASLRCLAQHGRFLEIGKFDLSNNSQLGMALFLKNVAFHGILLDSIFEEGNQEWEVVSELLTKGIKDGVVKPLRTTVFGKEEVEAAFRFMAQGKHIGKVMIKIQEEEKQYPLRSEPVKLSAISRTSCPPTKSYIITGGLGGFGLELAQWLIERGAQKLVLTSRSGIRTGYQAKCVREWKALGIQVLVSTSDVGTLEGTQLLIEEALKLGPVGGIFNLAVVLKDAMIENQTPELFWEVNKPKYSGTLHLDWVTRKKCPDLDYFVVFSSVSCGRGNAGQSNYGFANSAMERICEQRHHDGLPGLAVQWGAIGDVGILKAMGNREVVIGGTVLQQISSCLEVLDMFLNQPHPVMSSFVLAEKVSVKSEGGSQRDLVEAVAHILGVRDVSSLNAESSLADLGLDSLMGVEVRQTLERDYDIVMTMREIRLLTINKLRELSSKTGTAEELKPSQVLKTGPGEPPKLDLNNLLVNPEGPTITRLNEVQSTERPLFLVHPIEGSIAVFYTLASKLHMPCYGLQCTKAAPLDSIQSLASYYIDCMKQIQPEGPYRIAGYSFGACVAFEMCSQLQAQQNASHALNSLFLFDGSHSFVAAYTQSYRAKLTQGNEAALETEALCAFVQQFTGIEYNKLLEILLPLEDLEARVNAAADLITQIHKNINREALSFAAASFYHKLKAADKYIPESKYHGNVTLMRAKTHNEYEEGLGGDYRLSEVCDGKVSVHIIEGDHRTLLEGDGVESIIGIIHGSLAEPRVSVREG
row,SMILES,IC50 [µM]
1,C/C=C/C/C=C/CCC(=O)[C@H]1O[C@H]1C(N)=O,13
2,"O=c1cc(-c2ccc(O)c(O)c2)oc2cc(O)cc(O)c12 [2-(3,4-dihydroxyphenyl)-5,7-dihydroxy-4H-chromen-4-one]",62.5

# Results, then the compound that gave them:
row,IC50 [µM],SMILES
1,10.5,CCCCCC/C=C\CCCCCCCCCc1cccc(O)c1C(=O)O [6-[10'(Z)-heptade-cenyljsalicylic acid]
2,17.1,CCCCCC/C=C\CCCCCCCc1cccc(O)c1C(=O)O [6-{8(Z)-pentadecenyl}salicylic acid]
3,9.2,CCCCC/C=C/C/C=C/CCCCCCCc1cccc(O)c1C(=O)O [Ginkgolic acid C17:2 (2)]
